Reference: patent US20150018305A1, “SIRTUIN INDUCER, TISSUE REPAIRING AGENT, HEPATOCYTE GROWTH FACTOR INDUCER, TISSUE HOMEOSTASIS MAINTENANCE AGENT, AND TLR4 AGONIST, HAVING HYALURONIC ACID FRAGMENT AS ACTIVE INGREDIENT” (HYALURONAN RESEARCH INSTITUTE, INC., priority 2012, published 2015)
Each block holds one compound with its values, some of them ahead of it.

What was measured:
[1] = system: sirtuin enzymatic activity (sirt1 enzymatic activity); assay: Sirtuin enzymatic activity in cell solution of human epidermal keratinocytes, CycLex SIRT1/Sir2 Deacetylase Fluorometric Assay Kit (Test Example 2); type: cell-based; details: 10 ng/ml final concentration; cell crude extract
Protocol: Human epidermal keratinocytes were treated in the same manner as in Test Example 1, except that the final concentration of the hyaluronic acid fragment was 10 ng/ml, the size thereof being four sugar units (4mer), six sugar units (6mer), or 10 sugar units (10mer), while measuring the sirtuin enzymatic activity (sirt1 enzymatic activity) in the cell solution thereof. For purposes of comparison, 10 kDa or 900 kDa hyaluronic acid, and resveratrol, a known sirtuin activator, were likewise tested at 10 ng/ml final concentration. A human sirtuin recombinant protein (recombinant human sirt1) produced through genetic recombination techniques was used as a substance for verification of the measurement system. Sirtuin enzymatic activity in the cell crude extract was measured with the CycLex SIRT1/Sir2 Deacetylase Fluorometric Assay Kit (trade name of CycLex), following the protocol of the kit.

[2] = system: human epidermal keratinocytes; assay: Change in size of human epidermal keratinocytes, image analysis (Test Example 3); type: cell-based; details: surface area on the image of a single cell; 0.01 ng/ml, 24 hours
Protocol: A test of sirtuin induction in human epidermal keratinocytes was conducted in the same manner as in Test Example 1.
The change in cell size was analyzed using image analysis software (“Image J”). The 5 results in Table 2 are graphed in FIG. 5. The pixel count in the results indicates surface area on the image of a single cell, with higher values considered to indicate larger cells.

[3] = system: activated (phosphorylated) NF-kappaB; assay: NF-kappaB expression in TNF-α treated human large intestine epithelial cells, fluorescent staining (Test Example 9); type: cell-based; details: TNF-α treatment, 10 ng/ml test substance, 24 hours
Protocol: It was investigated whether the expression of NF-kappaB in human large intestine epithelial cells (HT29 cells) when subjected to TNF-α treatment is affected by treatment with the hyaluronic acid fragment. NF-kappaB is a transcription factor involved in inflammation, tissue destruction, and the like.
DMEM culture medium (made by Wako Pure Chemical Industries, Ltd.) to which TNF-α and the hyaluronic acid fragment were added, and DMEM culture medium from which these were omitted, were prepared, and human large intestine epithelial cells were treated for 24 hours in these culture media. Thereafter, the cells were stained with an antibody that recognizes activated (phosphorylated) NF-kappaB.
The vertical axis of the graph indicates fluorescent intensity. It may be appreciated that, in cells to which four- to eight-unit hyaluronic acid fragments were added, the expression level of NF-kappaB is reduced in statistically significant fashion.

[4] = system: Hepatocyte growth factor expression (mRNA); assay: Induction of hepatocyte growth factor in human epidermal keratinocytes, DNA microarray (Test Example 13); type: cell-based; details: 10 ng/ml, 24 hours; Cy5, DNA microarray
Protocol: Human epidermal keratinocytes (normal human keratinocytes from a person) were cultured respectively in a culture medium containing 10 ng/ml of four-unit hyaluronic acid fragment (4mer), and a culture medium containing no hyaluronic acid fragments (untreated), for 24 hours. For the culture medium, a serum-free medium for use with normal human keratinocytes, made by DS Pharma Biomedical Co. Ltd. was employed. After culture, the cells were recovered and analyzed with a DNA microarray (DNA chip).

[5] = system: human neural stem cells (neurospheres); assay: Action on human neural stem cells, Nestin/Tubulin double staining (Test Example 7); type: cell-based; details: 10 ng/ml, 12 days
Protocol: Human neural stem cells (neurospheres) (trade name Gibco Human Neural Stem Cells (H9-Derived) made by Gibco) were cultured in Neurobasal Media (trade name, made by Gibco) culture medium at 37° C. under 5% CO2, and the cells were recovered by trypsin treatment. The cells were then inoculated into a 96-well plate (100 μL per well) and cultured overnight. Following completion of culture, the culture broth from each well was transferred to Neurobasal Media (trade name, made by Gibco) culture medium to which no hyaluronic acid fragments were added, or to the same medium to which hyaluronic acid fragment (L3mer) had been added to a final concentration of 10 ng/ml, and cultured for 12 days
After 12 days had passed, the cells in each well were double-stained with anti human Nestin antibody and anti human Tubulin antibody. Nestin is a protein that is specifically expressed in neural stem cells, and is a neural stem cell marker. The stained cells were observed under a microscope (made by Nikon), taking photographs of cell morphology and stained images of cells.

liver function = assay: Concanavalin A liver damage model, blood GOT and GPT (Test Example 15); type: in vivo; details: concanavalin A 20 mg/kg caudal vein, fragment oral, after 24 hours, 20-month old female Balb/c mice
Protocol: The effect of action of the hyaluronic acid fragment on the liver of aged […] was investigated. Specifically, 20-month old (aged) female Balb/c mice were administered through the caudal vein with concanavalin A (20 mg/kg of body weight) one time, as a liver damage model. Subsequent to administration of concanavalin A, hyaluronic acid fragment (4mer or L3mer) were administered orally, and the effect thereof was investigated. Impairment of liver function was evaluated after 24 hours, by drawing blood and measuring the GOT and GPT values in the blood.

[6] = system: human neural stem cells (neurospheres); assay: Hydrogen peroxide induced aging of human neural stem cells, microscopy (Test Example 20); type: cell-based; details: 24 hours
Protocol: It was investigated whether the process, in which human neural stem cells (neurospheres) experienced cellular aging (vacuolar degeneration and hypertrophy) when treated with hydrogen peroxide, is affected by treatment with the hyaluronic acid fragment. Specifically, the following test was performed.
Human neural stem cells (neurospheres) (trade name Gibco Human Neural Stem Cells (H9-Derived) made by Gibco) were cultured in Neurobasal Media (trade name, made by Gibco) culture medium at 37° C. under 5% CO2. Hydrogen peroxide was added to the culture medium to a final concentration of 10 μM to bring about stimulation for a 15-minute period, and the culture broth was then transferred to Neurobasal Media culture medium (made by Gibco) containing no hyaluronic acid fragments; to the same culture medium containing hyaluronic acid fragment (L3mer) in a final concentration of 100 ng/ml; or to the same culture medium containing hyaluronic acid fragment (L3mer) plus TLR4/MD2 added to a final concentration of 10 μg/ml, and cultured for 24 hours.
After 24 hours, the cells were examined with an inverted microscope.

[7] = system: rat bone marrow mesenchymal stem cells; assay: Hydrogen peroxide induced aging of rat bone marrow mesenchymal stem cells, PI dead cell count (Test Example 21); type: cell-based; details: 2 hours
Protocol: It was investigated whether the process, in which rat bone marrow mesenchymal stem cells experienced cellular aging (increased cell death) when treated with hydrogen peroxide, is affected by treatment with the hyaluronic acid fragment. Specifically, the following test was performed.
Using a DMEM culture medium (made by Wako Pure Chemical Industries, Ltd.), rat bone marrow mesenchymal stem cells were cultured by usual methods at 37° C. under 5% CO2. Hydrogen peroxide was added to the culture medium to a final concentration of 1 μM to bring about stimulation for a 15-minute period, and the culture broth was then transferred to DMEM culture medium containing no added hyaluronic acid fragments; to DMEM culture medium containing hyaluronic acid fragment (L3mer) added to a final concentration of 100 ng/ml; or to DMEM culture medium containing the hyaluronic acid fragment (L3mer) plus TLR4/MD2 added to a final concentration of 10 μg/ml, and cultured for 2 hours.
After 2 hours had passed, PI ([…]), which emits red fluorescence upon uptake into dead cells, was added to the culture medium to a final concentration of 5 μg/ml, and after incubation for 15 minutes, the condition of appearance of dead cells was examined with a fluorescence microscope.

[8] = 100 ng/ml plus TLR4/MD2 10 μg/ml

Fluorescent intensity, Hepatocyte growth factor expression in keratinocytes (mRNA) [4]: 200.40
SMILES: CC(=O)N[C@H]1[C@H](O[C@H]2[C@H](O)[C@@H](O)[C@H](O[C@H]3[C@H](O)[C@@H](CO)OC(O)[C@@H]3NC(C)=O)O[C@@H]2C(=O)O)O[C@H](CO)[C@@H](O)[C@@H]1O[C@@H]1O[C@H](C(=O)O)[C@@H](O)[C@H](O)[C@H]1O (some centres unmarked) [4mer, GlcA(-GlcNAc-GlcA)1-GlcNAc]
sirtuin enzymatic activity (sirt1 enzymatic activity) compared with negative control [1]: approximately triple
Average pixel count [2]: 124515.9333
expression level of NF-kappaB (fluorescent intensity) [3]: inhibited to the greatest extent

SMILES: CC(=O)NC1C(O[C@@H]2OC(C(=O)O)[C@@H](O)C(O)C2O)[C@H](O)C(CO)O[C@H]1O[C@@H]1C(C(=O)O)O[C@@H](OCCCN=[N+]=[N-])C(O)C1O (some centres unmarked) [L3mer]
expression of Nestin and Tubulin [5]: expression of both Nestin and Tubulin was confirmed
process formation (morphology) [5]: process formation was confirmed
impairment of liver function (GOT values in the blood) (liver function): markedly better with the L3mer than with the 4mer
suppression of cellular aging with TLR4/MD2 added [6, 8]: inhibited by addition of TLR4/MD2
hydrogen peroxide-induced cellular aging (vacuolar degeneration and hypertrophy) ([6]; hydrogen peroxide 10 μM, 100 ng/ml): suppressed
suppression of cell death with TLR4/MD2 added [7, 8]: inhibited by addition of TLR4/MD2
hydrogen peroxide-induced cellular aging (increased cell death, dead cells per unit visual field) ([7]; hydrogen peroxide 1 μM, 100 ng/ml, PI staining): suppressed
